{"source": "ChEMBL document CHEMBL4616632", "about": "“Discovery of Cyclic Boronic Acid QPX7728, an Ultrabroad-Spectrum Inhibitor of Serine and Metallo-β-lactamases” (J Med Chem, 2020)", "key": {"[1]": {"test": "Toxicity in rat assessed as histological changes in tissue at 30 to 300 mg/kg, iv administered daily via infusion for 7 days", "assay_type": "organism-based", "conditions": "in vivo, 168 h"}, "BlaVIM-1": {"target": "BlaVIM-1 (Escherichia coli, UniProt Q8GDC1)", "test": "Inhibition of recombinant Escherichia coli VIM-1 using nitrocefin as substrate preincubated for 10 mins followed by substrate addition measured every 10 secs for 10 mins by spectrophotometrically analysis"}, "[2]": {"test": "Clearance in rat at 100 mg/kg, po administered via gavage by HPLC/MS analysis", "assay_type": "ADME, organism-based", "conditions": "in vivo"}, "Dipeptidyl peptidase 8": {"target": "Dipeptidyl peptidase 8 (Homo sapiens, UniProt Q6V1X1)", "sequence (Q6V1X1 whole entry)": "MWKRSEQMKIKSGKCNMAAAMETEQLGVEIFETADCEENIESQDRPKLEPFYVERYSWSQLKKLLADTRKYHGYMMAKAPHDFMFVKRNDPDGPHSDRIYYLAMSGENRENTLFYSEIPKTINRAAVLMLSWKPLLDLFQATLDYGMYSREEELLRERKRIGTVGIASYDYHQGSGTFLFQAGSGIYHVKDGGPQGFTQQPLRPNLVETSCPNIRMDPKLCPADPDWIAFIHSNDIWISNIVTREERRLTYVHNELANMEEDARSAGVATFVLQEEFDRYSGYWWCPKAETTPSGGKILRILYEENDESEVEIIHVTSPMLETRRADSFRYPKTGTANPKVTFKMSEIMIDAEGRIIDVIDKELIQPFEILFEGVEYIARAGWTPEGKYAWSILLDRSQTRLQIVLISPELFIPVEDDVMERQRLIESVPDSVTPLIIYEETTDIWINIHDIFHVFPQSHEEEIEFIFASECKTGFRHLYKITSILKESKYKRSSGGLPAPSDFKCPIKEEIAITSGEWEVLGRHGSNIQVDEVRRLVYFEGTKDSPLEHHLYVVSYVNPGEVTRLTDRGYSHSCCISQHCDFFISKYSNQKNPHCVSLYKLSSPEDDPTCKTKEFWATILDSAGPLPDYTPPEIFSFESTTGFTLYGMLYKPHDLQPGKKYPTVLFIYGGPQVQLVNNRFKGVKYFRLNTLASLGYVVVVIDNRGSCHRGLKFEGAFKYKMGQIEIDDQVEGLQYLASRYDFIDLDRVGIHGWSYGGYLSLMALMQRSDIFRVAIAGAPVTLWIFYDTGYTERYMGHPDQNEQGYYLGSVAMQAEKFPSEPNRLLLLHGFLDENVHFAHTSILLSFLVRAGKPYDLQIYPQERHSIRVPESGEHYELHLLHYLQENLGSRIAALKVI", "test": "Inhibition of mammalian DPP8 (unknown origin) using Lys-Pro-AMC as substrate preincubated for 10 mins followed by substrate addition measured after 30 mins"}, "[3]": {"test": "Half life in rat at 100 mg/kg, iv administered as infusion for 0.5 hrs by HPLC/MS analysis", "assay_type": "ADME, organism-based", "conditions": "in vivo"}, "Klebsiella pneumoniae": {"tested_on": "Klebsiella pneumoniae", "test": "Potentiation of cefepime-induced antibacterial activity against carbapenem-resistant Klebsiella pneumoniae assessed as cefepime MIC50 at 8 ug/ml by broth microdilution method (reference value: 32 ug/ml)", "assay_type": "functional"}, "[4]": {"test": "Cmax in rat at 1000 mg/kg, po administered via gavage by HPLC/MS analysis", "assay_type": "ADME, organism-based", "set-up": "dose 1000 mg/kg, route oral", "conditions": "in vivo"}, "[5]": {"test": "AUC in rat at 100 mg/kg, iv administered as infusion for 0.5 hrs by HPLC/MS analysis", "assay_type": "ADME, organism-based", "conditions": "in vivo"}, "Acinetobacter baumannii": {"tested_on": "Acinetobacter baumannii", "test": "Potentiation of meropenem-induced antibacterial activity against carbapenem-resistant Acinetobacter baumannii assessed as meropenem MIC90 at 8 ug/ml by broth microdilution method (Rvb > 32 ug/ml)", "assay_type": "functional"}, "[6]": {"target": "Class A carbapenemase KPC-2 (Escherichia coli, UniProt A8DS27)", "sequence (A8DS27 whole entry)": "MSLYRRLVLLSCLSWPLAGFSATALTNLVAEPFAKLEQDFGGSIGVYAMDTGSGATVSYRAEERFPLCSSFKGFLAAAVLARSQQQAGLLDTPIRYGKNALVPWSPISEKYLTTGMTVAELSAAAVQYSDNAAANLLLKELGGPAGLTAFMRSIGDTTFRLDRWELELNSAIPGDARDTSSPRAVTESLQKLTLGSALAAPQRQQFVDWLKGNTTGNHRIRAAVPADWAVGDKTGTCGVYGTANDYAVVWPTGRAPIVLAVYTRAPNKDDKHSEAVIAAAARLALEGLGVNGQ", "test": "Inhibition of recombinant Escherichia coli KPC-2 using nitrocefin as substrate preincubated for 10 mins followed by substrate addition and measured every 10 secs for 10 mins by spectrophotometric analysis"}, "[7]": {"test": "AUC in rat at 300 mg/kg, po administered via gavage by HPLC/MS analysis", "assay_type": "ADME, organism-based", "conditions": "in vivo"}, "[8]": {"test": "Lipophilicity, log D of the compound at pH 7.4", "assay_type": "physicochemical", "conditions": "buffer"}, "Trypsin": {"target": "Trypsin (Homo sapiens, UniProt P07477+P07478+P35030)", "test": "Inhibition of mammalian trypsin (unknown origin) using N-Bz-R-AMC as substrate preincubated for 10 mins followed by substrate addition measured after 30 mins", "assay_type": "protein assay"}, "Pseudomonas aeruginosa": {"tested_on": "Pseudomonas aeruginosa", "test": "Inhibition of Pseudomonas aeruginosa PAM 2035 AmpC assessed as minimum concentration of compound needed to reduce the MIC of aztreonam to 4 ug/ml"}, "Enterobacteriaceae": {"tested_on": "Enterobacteriaceae", "test": "Inhibition of NDM/VIM in carbapenem-resistant Enterobacteriaceae assessed as potentiation of ceftolozane-induced antibacterial activity by measuring ceftolozane MIC90 at 8 ug/ml by broth microdilution method (Rvb > 32 ug/ml)"}, "[9]": {"test": "Oral bioavailability in rat at 100 mg/kg administered via gavage by HPLC/MS analysis", "assay_type": "ADME, organism-based", "conditions": "in vivo"}, "[10]": {"target": "Urokinase-type plasminogen activator (Homo sapiens, UniProt P00749)", "test": "Inhibition of mammalian urokinase (unknown origin) using NGK-pNA as substrate preincubated for 10 mins followed by substrate addition measured after 30 mins"}}, "data": [{"compound": "O=C(O)c1c(F)ccc2c1OB(O)[C@@H]1C[C@H]21", "note": "[XERUBORBACTAM]", "values": [{"measurement": "Activity", "setting": "[1]", "result": "Toxic"}, {"measurement": "Ki", "setting": "BlaVIM-1", "result": 0.008, "unit": "µM"}, {"measurement": "CL/F", "setting": "[2]", "result": 18.5, "unit": "mL/min/kg"}, {"measurement": "IC50", "setting": "Dipeptidyl peptidase 8", "result": "> 1000", "unit": "µM"}, {"measurement": "half-life", "setting": "[3]", "result": 1.46, "unit": "h"}, {"measurement": "MIC50", "setting": "Klebsiella pneumoniae", "result": "≤ 0.06", "unit": "µg/mL"}, {"measurement": "Cmax", "setting": "[4]", "result": 90.4, "unit": "µg/mL"}, {"measurement": "AUC at 0.5 h", "setting": "[5]", "result": 221, "unit": "µg·h/mL"}, {"measurement": "MIC90", "setting": "Acinetobacter baumannii", "result": 4, "unit": "µg/mL"}, {"measurement": "Ki", "setting": "[6]", "result": 0.0019, "unit": "µM"}, {"measurement": "AUC", "setting": "[7]", "result": 177, "unit": "µg·h/mL"}, {"measurement": "logD", "setting": "[8]", "result": -2.85}, {"measurement": "IC50", "setting": "Trypsin", "result": "> 1000", "unit": "µM"}, {"measurement": "MEC", "setting": "Pseudomonas aeruginosa", "result": 5, "unit": "µg/mL"}, {"measurement": "MIC90", "setting": "Enterobacteriaceae", "result": "> 32", "unit": "µg/mL"}, {"measurement": "bioavailability", "setting": "[9]", "result": 42.6, "unit": "%"}, {"measurement": "IC50", "setting": "[10]", "result": "> 1000", "unit": "µM"}]}]}
